# From US9045490B2, “Use of parthenolide derivatives as antileukemic and cytotoxic agents” (University of Kentucky, priority 2003, dated 2015)
# How the values were obtained:
# [1] = tested on: primary acute myelogenous leukemia (AML) cells; assay: Assay for antileukemic activity (Annexin V/7-AAD apoptosis analysis by flow cytometry); format: cell-based; details: 24 hours of culture
# Method: For apoptosis analysis, one million primary acute myelogenous leukemia (AML) cells were washed with cold PBS and resuspended in 200 microliters of Annexin binding buffer (10 mM HEPES/NaOH pH 7.4; 140 mM NaCl; 2.5 mM CaCl2). Annexin V-FITC (Pharmingen) and 0.25 mg/mL 7-AAD (7-aminoactinomycin D, Molecular Probes, CA) were added and the tubes were incubated at room temperature in the dark for 15 minutes. Cells were then diluted with 200 microliters of Annexin binding buffer and analyzed immediately by flow cytometry. Viable cells were identified as failing to label with Annexin V or 7-AAD. Cells beginning to die label with Annexin V, and as membrane integrity is lost, will also label with 7-AAD. […] Data are normalized to untreated control specimens. The data are in Table 1 for aminoparthenolide derivatives and Table 2 for the salts of some aminoparthenolides.
# [2] = tested on: breast cancer cell line mdl-231; assay: Clonogenic assay; format: cell-based; details: mdl-231, 2 μm concentration (parthenolide: similar dosage ranges)
# [3] = tested on: breast cancer cell line hbl-100; assay: Clonogenic assay; format: cell-based; details: hbl-100, 2 μm concentration (parthenolide: similar dosage ranges)
# [4] = Oral bioavailability in mice: plasma level by LC-MS; format: in vivo; details: mouse, 40 mg/kg oral, LC-MS, average of 5 mice, read-out: plasma level one hour after oral gavage
# Method: Preliminary in vivo work was conducted to determine the bioavailability and toxicity of this agent in mice.
# [5] = tested on: Healthy human bone marrow cells; assay: Cytotoxicity to healthy bone marrow cells (same Annexin V/7-AAD assay); format: cell-based; details: 10 μM
# Method: For apoptosis analysis, one million primary acute myelogenous leukemia (AML) cells were washed with cold PBS and resuspended in 200 microliters of Annexin binding buffer (10 mM HEPES/NaOH pH 7.4; 140 mM NaCl; 2.5 mM CaCl2). Annexin V-FITC (Pharmingen) and 0.25 mg/mL 7-AAD (7-aminoactinomycin D, Molecular Probes, CA) were added and the tubes were incubated at room temperature in the dark for 15 minutes. Cells were then diluted with 200 microliters of Annexin binding buffer and analyzed immediately by flow cytometry. Viable cells were identified as failing to label with Annexin V or 7-AAD. Cells beginning to die label with Annexin V, and as membrane integrity is lost, will also label with 7-AAD. For each parthenolide derivative, the percentage of viable cells was determined after 24 hours of culture at a 10 micromolar concentration. Data are normalized to untreated control specimens. The data are in Table 1 for aminoparthenolide derivatives and Table 2 for the salts of some aminoparthenolides.
# Healthy human bone marrow cells were used in the above assay to test the cytotoxicity of parthenolide. Eighty-five percent of the normal cells survived 10 μM of parthenolide. All the aminoparthenolides evaluated afforded results similar to parthenolide, i.e. the survival rate of healthy human bone marrow cells was over 85% at a concentration of 10 μM.
# [6] = tested on: lung cancer cell line H522; assay: MTS-PMS cellular proliferation assay; format: cell-based; details: Homo sapiens, NCI-H522
# Method: (§1) A 96-well U-bottomed plate (Becton Dickinson Labware, Franklin Lakes, N.J.) at a concentration of 5,000 cells per 50 microliters […] of media was incubated in 5% CO2 at 37° C. for 24 hours. Varying compound concentrations in […] of media were added to the media 24 hours later. Colorimetric readings were obtained using the MTS/PMS system and an ELISA plate reader, after 48 hours of exposure to DMAPT. The readings obtained for each concentration tested were from an average of eight wells. Each experiment was expressed as a percentage of the solvent control and completed at least three times with consistent results. The results presented are an average of three experiments. The hormone refractory prostate cancer cell line CWR22Rv1 was treated with increasing concentrations of parthenolide and DMAPT. for three hours Both parthenolide and DMAPT reduced cellular proliferation by 50% at 5 μm in the CWR22 MTS-PMS assay. Cellular proliferation was also measured in the MTS-PMS assay using four lung cancer cell lines treated with parthenolide and derivatives PIPT ((11S,11,13-dihydro,13-(piperidin-1-yl)parthenolide), 4MEPT (11S,11,13-dihydro,13-(4-methylpiperidin-1-yl)parthenolide) and MAPT (11S,11,13-dihydro,13-dimethylaminoparthenolide). Parthenolide and its derivatives inhibited cellular proliferation in a dose dependent manner between 2 and 10 μM with 70% inhibition at 10 μM in A549, 50% in H460, 40% in H-23 and 40% in H522 (FIGS. 2-5).
# [7] = tested on: hormone refractory prostate cancer cell line CWR22Rv1; assay: MTS-PMS cellular proliferation assay; format: cell-based; details: at 5 μm, CWR22 MTS-PMS assay
# Method: as §1
# [8] = tested on: lung cancer cell line H-23; assay: MTS-PMS cellular proliferation assay; format: cell-based
# Method: as §1
# [9] = tested on: lung cancer cell line H460; assay: MTS-PMS cellular proliferation assay; format: cell-based; details: Homo sapiens, NCI-H460
# Method: as §1
# [10] = tested on: lung cancer cell line A549; assay: MTS-PMS cellular proliferation assay; format: cell-based; details: Homo sapiens
# Method: as §1
# [11] = tested on: breast cancer cell line 436; assay: Clonogenic assay; format: cell-based; details: 436 cells, 2 μm concentration (parthenolide: similar dosage ranges)
# [12] = tested on: AML cells (AML stem cell compartment); assay: Human-mouse xenograft: NOD/SCID engraftment of AML cells treated in vitro; format: in vivo, human cells in NOD/SCID mice; details: 7.5 micromolar in vitro for 12-18 hours, bone marrow analysed after 6-8 weeks (CD45)
# Method: (§2) To assess the effect of parthenolide on primary human stem cell populations, experiments were conducted using transplantation into immune deficient NOD/SCID mice. […] For each experiment, cryopreserved mononuclear cell specimens from normal or AML donors were thawed, and treated in vitro with 7.5 micromolar parthenolide for 12-18 hours. Following culture, 5-10 million cells/animal were injected intravenously into sublethally irradiated (300 Rad) NOD/SCID mice. After 6-8 weeks, animals were sacrificed and bone marrow was analyzed for the presence of human cells using flow cytometry as previously described (Guzman et al., Proc Natl Acad Sci USA 2002; 99: 16220-162253). Human specific antibodies for CD45 were used to assess the level of total engraftment.
# [13] = tested on: normal hematopoietic stem cells; assay: Human-mouse xenograft: NOD/SCID engraftment of normal donor cells treated in vitro; format: in vivo; details: 7.5 micromolar in vitro for 12-18 hours, bone marrow analysed after 6-8 weeks (CD45)
# Method: as §2
# [14] = tested on: radiation sensitive cell line A549; assay: Radiation sensitisation by pretreatment, survival fraction; format: cell-based; details: A549, 2.5 micromolar pretreatment
# Excerpt: The radiation sensitive cell line A549 was pretreated with parthenolide concentrations ranging from 0 to 2.5 micromolar. The cells were then subjected to ionizing radiation doses ranging from 0-6Gy and survival fraction of the cells determined. […] Cells not receiving pre-treatment with parthenolide had greater than 50% survival fraction at the highest radiation dose of 6Gy and over 90% survival at 2Gy.
# [15] = 10 μM, normalized to untreated control
compound,measurement,setting,value
"C#CCNCC1C(=O)OC2C1CCC(C)=CCCC1(C)OC21 (centres unmarked) [11S,11,13-Dihydro,13-propargylaminoparthenolide]",Antileukemic activity,[1]; [15],"10 μM, 7%"
"11S,11,13-Dihydro,13-(4-methylpiperidin-1-yl)parthenolide [Compound 4MePipPT]",Antileukemic activity,[1]; [15],"10 μM, 83%"
"C=C1CCC2C(CN(CC)CC)C(=O)OC2C2C(=C)CCC12 (centres unmarked) [11H, 13-(N,N-Diethylamino)-dehydrocostuslactone]",Antileukemic activity,[1]; [15],"10 μM, 5%"
"CNC[C@H]1C(=O)O[C@H]2[C@H]1CC/C(C)=C/CC[C@@]1(C)O[C@@H]21 [11S,11,13-Dihydro,13-methylaminoparthenolide]",Antileukemic activity,[1]; [15],"10 μM, 4%"
"C=C1CCC2C(CN(C)CCCCC)C(=O)OC2C2C(=C)CCC12 (centres unmarked) [11H, 13-(N-Methyl-N-pentylamino)-dehydrocostuslactone]",Antileukemic activity,[1]; [15],"10 μM, 0%"
"C=C1CCC2C(CN3CCOCC3)C(=O)OC2C2C(=C)CCC12 (centres unmarked) [11H, 13-(N-Morpholine)-dehydrocostuslactone]",Antileukemic activity,[1]; [15],"10 μM, 10%"
C=C1C(=O)O[C@@H]2[C@H]3O[C@]3(C)CC/C=C(\C)CC[C@@H]12 [Parthenolide],inhibition of proliferation,[2],reduced proliferation
same,inhibition of proliferation,[3],reduced proliferation
same,concentration at 1 h,[4],~200 nM
same,survival rate of healthy human bone marrow cells,[5],Eighty-five
same,inhibition at 10 µM,[6],40%
same,reduction of cellular proliferation,[7],50%
same,inhibition at 10 µM,[8],40%
same,inhibition at 10 µM,[9],50%
same,inhibition at 10 µM,[10],70%
same,inhibition of proliferation,[11],reduced proliferation
same,Antileukemic activity,[1]; [15],"10 μM, 84%"
same,level of engraftment of treated AML cells in NOD/SCID mice,[12],dramatically reduced
same,level of engraftment of treated normal cells in NOD/SCID mice,[13],no reduction in engraftment
same,survival fraction,[14]; 2Gy,10%
same,survival fraction,[14]; 6Gy,less than 1%
"C/C1=C\CC[C@@]2(C)O[C@H]2[C@H]2OC(=O)[C@H](CN3CCN(C)CC3)[C@@H]2CC1 [Compound 4MePizPT, 11S,11,13-Dihydro,13-(4-methylpiperazin-1-yl)parthenolide]",Antileukemic activity,[1]; [15],"10 μM, 7%"
"CC1=CCCC2(C)OC2C2OC(=O)C(CN3CCCCCC3)C2CC1 (centres unmarked) [HomoPipPT, 11S,11,13-Dihydro,13-(homopiperidin-1-yl)parthenolide]",Antileukemic activity,[1]; [15],"10 μM, 40%"
"11S,11,13-dihydro,13-(piperidin-1-yl)parthenolide hydrochloride",Antileukemic activity,[1]; [15],"10 μM, 88%"
"C=CCN(CC=C)CC1C(=O)OC2C1CCC(=C)C1CCC(=C)C12 (centres unmarked) [11H, 13-(N-Diallyl)-dehydrocostuslactone]",Antileukemic activity,[1]; [15],"10 μM, 2%"
"C=C1CCC2C(CN3CCCC3)C(=O)OC2C2C(=C)CCC12 (centres unmarked) [11H, 13-(N-Pyrrolidine)-dehydrocostuslactone]",Antileukemic activity,[1]; [15],"10 μM, 20%"
"CCNCC1C(=O)OC2C1CCC(C)=CCCC1(C)OC21 (centres unmarked) [11S,11,13-Dihydro,13-ethylaminoparthenolide]",Antileukemic activity,[1]; [15],"10 μM, 2%"
"CC1=CCCC2(C)OC2C2OC(=O)C(CN3CCCC3)C2CC1.Cl (centres unmarked) [11S, 11,13-Dihydro,13-(pyrrolidin-1-yl)parthenolide hydrochloride]",Antileukemic activity,[1]; [15],"10 μM, 85%"
"C=C1CCC2C(CN(C)C)C(=O)OC2C2C(=C)CCC12 (centres unmarked) [11H, 13-(N,N-Dimethylamino)-dehydrocostuslactone]",Antileukemic activity,[1]; [15],"10 μM,12%"
"CC1=CCCC2(C)OC2C2OC(=O)C(CN3CCCCCCC3)C2CC1 (centres unmarked) [HeptaMePipt, 11S,11,13-Dihydro,13-(heptamethyleneimin-1-yl)parthenolide]",Antileukemic activity,[1]; [15],"10 μM, 10%"
"11S,11,13-Dihydro,13-(pyrrolidin-1-yl)parthenolide [PyrPT]",Antileukemic activity,[1]; 5 μM,"5 μM, 23%"
same,Antileukemic activity,[1]; [15],"10 μM, 85%"
same,Antileukemic activity,[1]; 20 μM,"20 μM, 95%"
"11S,11,13-Dihydro,13-methyl pentyl aminoparthenolide",Antileukemic activity,[1]; [15],"10 μM, 45%"
"11S,11,13-Dihydro,13-methylbutyl aminoparthenolide",Antileukemic activity,[1]; [15],"10 μM, 68%"
"C=C1CCC2C(CN(C)CCC)C(=O)OC2C2C(=C)CCC12 (centres unmarked) [11H, 13-(N-Methyl-N-propylamino)-dehydrocostuslactone]",Antileukemic activity,[1]; [15],"10 μM, 1%"
"11S,11,13-Dihydro,13-(morpholin-1-yl)parthenolide [MorPT]",Antileukemic activity,[1]; 20 μM,"20 μM, 20%"
"C=C1CCC2C(CN(C)CCCC)C(=O)OC2C2C(=C)CCC12 (centres unmarked) [11H, 13-(N-Butyl-N-methylamino)-dehydrocostuslactone]",Antileukemic activity,[1]; [15],"10 μM, 8%"
"C=C1CCC2C(CN(CC)Cc3ccccc3)C(=O)OC2C2C(=C)CCC12 (centres unmarked) [11H, 13-(N-Ethyl-N-benzyl)-dehydrocostuslactone]",Antileukemic activity,[1]; [15],"10 μM, 13%"
"C=C1CCC2C(CNCCC)C(=O)OC2C2C(=C)CCC12 (centres unmarked) [11H, 13-(N-Propylamino)-dehydrocostuslactone]",Antileukemic activity,[1]; [15],"10 μM, 24%"
"11S,11,13-Dihydro,13-(tert-butylamino)parthenolide [tBAPT]",Antileukemic activity,[1]; [15],"10 μM, 20%"
"11S, 11,13-Dihydro,13-(4-methylpiperidin-1-yl)parthenolide hydrochloride",Antileukemic activity,[1]; [15],"10 μM, 62%"
"CC1=CCCC2(C)OC2C2OC(=O)C(CNC3CC3)C2CC1 (centres unmarked) [11S,11,13-Dihydro,13-cyclopropylaminoparthenolide]",Antileukemic activity,[1]; [15],"10 μM, −6%"
"C=C1CCC2C(CN3CCCCC3)C(=O)OC2C2C(=C)CCC12 (centres unmarked) [11H, 13-(N-Piperidine)-dehydrocostuslactone]",Antileukemic activity,[1]; [15],"10 μM, 14%"
"C/C1=C\CC[C@@]2(C)O[C@H]2[C@H]2OC(=O)[C@H](CN3CCCCC3)[C@@H]2CC1 [PipPT, 11S,11,13-Dihydro,13-(piperidin-1-yl)parthenolide]",Antileukemic activity,[1]; 2.5 μM,"2.5 μM, 71%"
same,Antileukemic activity,[1]; 5 μM,"v5 μM, 91%"
"11S,11,13-Dihydro,13-diethylaminoparthenolide [DEAPT]",Antileukemic activity,[1]; [15],"10 μM, 60%"
